According to the NIST ThermoML archive (doi:10.1021/je020135f):
“And” between values parts separate entries of the source, which are not always exact repeats. Identical values can stand only once.

Tests used:
[1] = 298.15 K; 101.33 kPa; Liquid; Vibrating tube method
[2] = excess molar enthalpy (molar enthalpy of mixing); xn = mol fraction of the nth substance listed

CN(C)C=O [dimethylformamide]
Conditions	mass density
[1]	943.81 kg/m3 and 943.88 kg/m3

CO [methanol]
Conditions	mass density [kg/m3]
[1]	786.55

CC1CCCCC1 [methylcyclohexane]
Conditions	mass density
[1]	764.96 kg/m3 and 764.97 kg/m3

CC1CCCCC1 [methylcyclohexane] + CN(C)C=O
excess molar enthalpy [kcal/mol], [2], 101.33 kPa, Liquid
Conditions	298.15 K	313.15 K
x1 = 0.031	0.0593	0.058
x1 = 0.0633	0.104	–
x1 = 0.0634	–	0.114
x1 = 0.0969	0.162	–
x1 = 0.097	–	0.166
x1 = 0.132	0.209	–
x1 = 0.1321	–	0.215
x1 = 0.1687	–	0.26
x1 = 0.2069	–	0.298
x1 = 0.9204	–	0.182
x1 = 0.924	0.17	–
x1 = 0.9274	0.163	–
x1 = 0.9305	0.159	–
x1 = 0.9383	0.147	0.154
x1 = 0.9552	–	0.118

[2]
Conditions	excess molar enthalpy
298.15 K, Liquid mixture 1, x1 = 0.1685	0.228 kcal/mol
298.15 K, Liquid mixture 1, x1 = 0.2068	0.234 kcal/mol
298.15 K, Liquid mixture 1, x1 = 0.2467	0.233 kcal/mol
298.15 K, Liquid mixture 1, x1 = 0.2893	0.233 kcal/mol
298.15 K, Liquid mixture 1, x1 = 0.3322	0.231 kcal/mol
298.15 K, Liquid mixture 1, x1 = 0.3781	0.227 kcal/mol
298.15 K, Liquid mixture 1, x1 = 0.3782	0.226 kcal/mol
298.15 K, Liquid mixture 1, x1 = 0.4264	0.224 kcal/mol
298.15 K, Liquid mixture 1, x1 = 0.4771	0.221 kcal/mol
298.15 K, Liquid mixture 1, x1 = 0.5304	0.218 kcal/mol
298.15 K, Liquid mixture 1, x1 = 0.5867	0.215 kcal/mol
298.15 K, Liquid mixture 1, x1 = 0.646	0.212 kcal/mol
298.15 K, Liquid mixture 1, x1 = 0.7087	0.208 kcal/mol
298.15 K, Liquid mixture 1, x1 = 0.7751	0.204 kcal/mol
298.15 K, Liquid mixture 1, x1 = 0.8455	0.199 kcal/mol
298.15 K, Liquid mixture 1, x1 = 0.9204	0.179 kcal/mol
313.15 K, Liquid mixture 1, x1 = 0.2469	0.315 kcal/mol
313.15 K, Liquid mixture 1, x1 = 0.2887	0.319 kcal/mol and 0.317 kcal/mol
313.15 K, Liquid mixture 1, x1 = 0.3325	0.317 kcal/mol
313.15 K, Liquid mixture 1, x1 = 0.3784	0.316 kcal/mol
313.15 K, Liquid mixture 1, x1 = 0.4267	0.314 kcal/mol
313.15 K, Liquid mixture 1, x1 = 0.4773	0.312 kcal/mol
313.15 K, Liquid mixture 1, x1 = 0.5307	0.308 kcal/mol
313.15 K, Liquid mixture 1, x1 = 0.5869	0.306 kcal/mol
313.15 K, Liquid mixture 1, x1 = 0.6462	0.304 kcal/mol
313.15 K, Liquid mixture 1, x1 = 0.7089	0.301 kcal/mol
313.15 K, Liquid mixture 1, x1 = 0.7753	0.297 kcal/mol
313.15 K, Liquid mixture 1, x1 = 0.8457	0.276 kcal/mol

CC1CCCCC1 [methylcyclohexane] + CO
excess molar enthalpy [kcal/mol], [2], 101.33 kPa, Liquid
Conditions	298.15 K	313.15 K
x1 = 0.0166	0.0185	0.02
x1 = 0.0343	–	0.0381
x1 = 0.0345	0.0357	–
x1 = 0.0534	–	0.0559
x1 = 0.0537	0.052	–
x1 = 0.0741	–	0.0718
x1 = 0.0743	0.066	–
x1 = 0.0964	–	0.0868
x1 = 0.0967	0.0793	–
x1 = 0.1206	–	0.101
x1 = 0.121	0.0911	–
x1 = 0.147	–	0.114
x1 = 0.1758	–	0.125
x1 = 0.2075	–	0.134
x1 = 0.2411	–	0.139
x1 = 0.2424	–	0.141
x1 = 0.7423	–	0.16
x1 = 0.8057	–	0.152
x1 = 0.8588	–	0.138
x1 = 0.859	0.101	–
x1 = 0.9055	–	0.123
x1 = 0.9056	0.0887	–
x1 = 0.941	–	0.108

[2]
Conditions	excess molar enthalpy [kcal/mol]
298.15 K, Liquid mixture 1, x1 = 0.1475	0.0996
298.15 K, Liquid mixture 1, x1 = 0.1764	0.103
298.15 K, Liquid mixture 1, x1 = 0.2082	0.104
298.15 K, Liquid mixture 1, x1 = 0.2411	0.105
298.15 K, Liquid mixture 1, x1 = 0.2432	0.105
298.15 K, Liquid mixture 1, x1 = 0.2819	0.105
298.15 K, Liquid mixture 1, x1 = 0.3251	0.106
298.15 K, Liquid mixture 1, x1 = 0.3736	0.106
298.15 K, Liquid mixture 1, x1 = 0.4283	0.107
298.15 K, Liquid mixture 1, x1 = 0.4907	0.108
298.15 K, Liquid mixture 1, x1 = 0.5623	0.108
298.15 K, Liquid mixture 1, x1 = 0.6453	0.109
298.15 K, Liquid mixture 1, x1 = 0.7429	0.111
298.15 K, Liquid mixture 1, x1 = 0.8061	0.109
313.15 K, Liquid mixture 1, x1 = 0.2812	0.145
313.15 K, Liquid mixture 1, x1 = 0.3244	0.147
313.15 K, Liquid mixture 1, x1 = 0.3728	0.15
313.15 K, Liquid mixture 1, x1 = 0.4275	0.154
313.15 K, Liquid mixture 1, x1 = 0.4898	0.157
313.15 K, Liquid mixture 1, x1 = 0.5615	0.16
313.15 K, Liquid mixture 1, x1 = 0.6446	0.164
